Four molecules from US20250354192A1, “METHODS FOR QUANTIFYING LIVE BACTERIA” (priority 2022, published 2025) can be followed below.

Test [1] has as its system E. coli. Kind of test: Cell doubling control with DL-serine hydroxamate, OD600 and EDA click labeling on PIPER. The test is classed as cell-based. The method, then: E. coli was grown overnight at 37° C. The next day, cells were diluted into fresh media and grown for 2 hours. Next, +/−DL-serine hydroxamate (SHX; 1 mg/ml) and EDA (1 mM) were added. OD600 was taken every 20 min for 90 min. Aliquots of cells at the last time point were pelleted by centrifugation (10 min 10,000 g), and supernatant was discarded. Bacteria were washed with 1 mL of 1× PBS, pelleted by centrifugation (10 min 10,000 g), and supernatant was discarded. Cell pellets were resuspended in click reaction solution containing 200 μM copper sulfate (II) (MilliporeSigma, Burlington, MA), 128 μM THPTA ligand (Lumiprobe, Hunt Valley, MD), 2.5 mM Ascorbic acid (MilliporeSigma, Burlington, MA), 25 μM CF488 picolyl azide fluorescent dye (Biotium, Fremont, CA) and incubated for 30 min at room temperature. Cells were pelleted by centrifugation (10 min 10,000 g), supernatant was discarded, and pellets were resuspended 1 mL of 1× PBS. Finally, pellets were resuspended in PBS, mixed with ferrofluid and processed in the non-capture assay on PIPER. An automated bacterial image recognition algorithm determined labeled cell counts.

The test system of test [2] is Salmonella Typhimurium, Staphylococcus aureus, or a mixture of the two strains. The test is described as follows: Labeling of a mixed culture with NADA-Green, PIPER non-capture assay. The conditions noted are these: 1 mM, 60 minutes, 37° C. The format is cell-based. As for the experimental part:
Even with efficient uptake of the D-amino acid analog, gram-negative bacteria may not stain as brightly as gram-positive bacteria because gram-negative bacteria have a much thinner peptidoglycan layer. […] For example, FIGS. 12A-B depict labeling of a mixed culture with NADA-Green. A log phase culture of Salmonella Typhimurium, Staphylococcus aureus, or a mixture of the two strains was incubated at 37° C. with 1 mM NADA-Green Bio-Techne, Minneapolis, MN) for 60 minutes. Cells were pelleted by centrifugation (10 min 10,000 g) to remove the excess dye, resuspended in 1×PBS, mixed with ferrofluid, and processed on PIPER in a non-capture assay. […] Salmonella cells appear smaller and dimmer in the image than Staph. aureus cells.

The subject of test [3] is eight (8) different strains of log phase bacteria. Kind of test: Quantification of cells labeled with NADA-Green in eight strains, PIPER image recognition algorithm. The format is cell-based. Conditions: 1 mM, 60 minutes. An excerpt:
FIG. 5A depicts the quantification of cells labeled with NADA-Green in eight (8) different strains of log phase bacteria. FIG. 5B depicts the quantification of cell labelling efficiency by NADA-Green in eight (8) different strains of log phase bacteria (SE—Salmonella enterica; EC—Escherichia coli; KP—Klebsiella pneumoniae; CF—Citrobacter freundii; SA—Staphylococcus aureus; BC—Bacillus cereus; LM—Listeria monocytogenes; PA—Pseudomonas aeruginosa), determined as a percentage of NADA-labelled PIPER cell counts to the SYBR-labelled PIPER cell counts. Cells growing at 37° C. in BHI media were incubated with 1 mM NADA-Green (Bio-Techne, Minneapolis, MN) for 60 minutes. Cells were pelleted by centrifugation (10 min 10,000 g) to remove the excess dye, resuspended in 1×PBS, mixed with ferrofluid, and processed on PIPER in a non-capture assay. An automated bacterial image recognition algorithm determined labeled cell counts.

Test [4] relates to Bacillus, Enterococcus, Listeria, Salmonella, and Klebsiella. Kind of test: NADA-Green labeling of live versus heat-killed bacteria, PIPER non-capture assay. The format is cell-based. Conditions: 1 mM, 60 minutes; live log phase or heat-killed 15 minutes at 70° C. As for the experimental part:
Accordingly, as shown in FIG. 2A-E, NADA-Green labels live bacteria and illustrates five (5) different strains (Bacillus, Enterococcus, Listeria, Salmonella, and Klebsiella) of log phase bacteria growing at 37° C. in brain heart infusion (BHI) media or heat-killed for 15 minutes at 70° C. were incubated with or without the fluorescent D-amino acid, NADA-Green at 1 mM (Bio-Techne, Minneapolis, MN) for 60 minutes. Cells were pelleted to remove the excess dye and resuspended in 1X phosphate buffered saline (PBS). Each sample was then split into two tubes. To one of the tubes, SYBR Green (ThermoFisher Scientific, Waltham, Massachusetts) was added in 1:100 dilution. All samples were processed on Ancera Inc.'s PIPER™ platform (“PIPER”) in a non-capture assay and analyzed by a bacterial image recognition algorithm to determine labeled cell counts. […] SYBR labeling confirmed that the dead cells remained intact on the instrument.

Test [5] deals with Salmonella Typhimuirum. Kind of test: Time course of labeling with NADA-Green, PIPER cartridge coated with Salmonella-specific antibody. The format is cell-based. Conditions: 1 mM, 30 minutes or 90 minutes, 37° C. in BHI. The method, then:
Cells were pelleted by centrifugation (10 min 10,000 g) to remove the excess dye, resuspended in 1×PBS, mixed with ferrofluid, and processed on PIPER using a cartridge having areas coated with a Salmonella-specific antibody.

Test [6] has as its system gram-positive and gram-negative bacteria. Kind of test: Labeling of gram-positive and gram-negative bacteria with NADA-Green, PIPER non-capture assay. The test is classed as cell-based, five (5) different strains of log phase bacteria. The conditions noted are these: 1 mM, 90 minutes. As for the experimental part: FIG. 4 depicts the labeling of gram-positive and gram-negative bacteria with NADA-Green with the five (5) different strains of log phase bacteria (see FIGS. 2A-E) growing at 37° C. in BHI media, and then incubated with 1 mM NADA-Green (Bio-Techne, Minneapolis, MN) for 90 minutes. Cells were pelleted by centrifugation (10 min 10,000 g) to remove the excess dye, resuspended in 1×PBS, mixed with ferrofluid, and processed on PIPER in a non-capture assay.

Test [7] relates to Eight (8) different species of bacteria. Kind of test: Bacterial growth (OD600) of cold-stressed cultures in BHI with or without chloramphenicol. The format is cell-based. The conditions noted are these: 5 μg/mL in BHI, 37° C., 2-hour observation window. The method, then:
Eight (8) different species of bacteria (Salmonella enterica, E. coli, Klebsiella pneumoniae, Citrobacter freundii, Staphylococcus aureus, Bacillus cereus, Listeria monocytogenes and Pseudomonas aeruginosa) were propagated from frozen stocks onto TSA plates and incubated at 37° C. for 24 hours. To induce cold-stress, a loopful of cells from each plate was transferred into 3 mL of Butterfield's Phosphate Buffer, vortexed to suspend the cells, and placed at 4° C. for 1 day. The following day, cells from each culture were pelleted for 10 minutes at 10,000 g and resuspended in BHI (FIG. 19A) or BHI containing 5 μg/mL of chloramphenicol (FIG. 19B). Each culture was normalized to an absorbance value at 600 nm (OD600) of 0.05 and loaded in triplicate onto a sterile microplate at 0.2 mL per well. The microplate was covered with BreatheEasy film and bacterial growth was monitored using a SpectroStar Nano spectrophotometer (BMG Labtech, Cary, NC) for 24 hours. During growth, the temperature was maintained at 37° C. and the plate was automatically shaken prior to OD600 readings every 10 minutes. […] OD600 observations were validated using the “gold-standard” petrifilm counts (3M) (FIG. 19C). […]

Test [8] deals with Klebsiella pneumoniae (KP). Kind of test: APC petrifilm counts before and after 90 minutes incubation with or without chloramphenicol. The test is classed as cell-based. Conditions: 5 μg/mL, 37° C. for 90 minutes. The method, then:
(§1) Eight (8) different species of bacteria (Salmonella enterica, E. coli, Klebsiella pneumoniae, Citrobacter freundii, Staphylococcus aureus, Bacillus cereus, Listeria monocytogenes and Pseudomonas aeruginosa) were propagated from frozen stocks onto TSA plates and incubated at 37° C. for 24 hours. To induce cold-stress, a loopful of cells from each plate was transferred into 3 mL of Butterfield's Phosphate Buffer, vortexed to suspend the cells, and placed at 4° C. for 1 day. The following day, cells from each culture were pelleted for 10 minutes at 10,000 g and resuspended in BHI (FIG. 19A) or BHI containing 5 μg/mL of chloramphenicol (FIG. 19B). Each culture was normalized to an absorbance value at 600 nm (OD600) of 0.05 and loaded in triplicate onto a sterile microplate at 0.2 mL per well. The microplate was covered with BreatheEasy film and bacterial growth was monitored using a SpectroStar Nano spectrophotometer (BMG Labtech, Cary, NC) for 24 hours. During growth, the temperature was maintained at 37° C. and the plate was automatically shaken prior to OD600 readings every 10 minutes. […] A cold-stressed Klebsiella pneumoniae (KP) culture prepared as described above was transferred into BHI or BHI containing 5 μg/mL of chloramphenicol and either plated immediately or placed at 37° C. for 90 minutes. […]

For test [9], the system named is Klebsiella pneumoniae (KP). Kind of test: 3-step metabolic labeling with EDA with or without chloramphenicol, detection on PIPER. The test is classed as cell-based. The conditions noted are these: 5 μg/mL, 1 mM EDA, 37° C. for 90 min. As for the experimental part: as §1
The test system of test [10] is B. cereus (ATCC 33019). The conditions noted are these: ethanol 70%, 5 to 10 min at room temperature. As for the experimental part: (§2) Experimental Detail: A single colony of each indicated bacteria was inoculated into BHI and incubated overnight at 37° C. On the next day, the cells were diluted into fresh BHI and incubated for 2 h at 37° C. followed by an additional 90-minute incubation in the presence or absence of 1 mM EDA, where indicated. Where indicated, an aliquot of each culture was mixed with 96% ethanol to a final concentration of 70% (A, B) or 25% (C) and incubated for 5 to 10 min at room temperature. Cultures not exposed to ethanol were incubated for an equal amount of time in 1×PBS. Cells were pelleted by centrifugation for 10 min at 10,000 g, and supernatant containing excess EDA and ethanol was discarded. Cells were then resuspended in 300 μL of 1×PBS and pelleted again by centrifugation (10 min at 10,000 g). The 3rd step was carried out by resuspending cell pellets in 0.25 mL of 1×PBS solution containing 200 μM copper sulfate (II) (MilliporeSigma, Burlington, MA), 128 μM THPTA ligand (Lumiprobe, Hunt Valley, MD), 2.5 mM Ascorbic acid (MilliporeSigma, Burlington, MA), 25 μM CF488 picolyl azide fluorescent dye (Biotium, Fremont, CA), and 5% DMSO (Thermo Fisher Scientific, Waltham, MA). After a 30-minute incubation at room temperature, 500 μL of 1×PBS was added to each reaction, and cells were harvested by centrifugation (10 min at 10,000 g). Supernatant containing excess dye and reaction components was discarded, cells were washed with 500 μL of 1×PBS, and the cells were pelleted again by centrifugation. Finally, each cell pellet was resuspended in 0.3 mL of 1×PBS and mixed with an equal volume of ferrofluid. All samples were run on PIPER, and cell counts were generated by image analysis using an automated bacterial image recognition algorithm.

For test [11], the system named is E. coli (ATCC 35421). Conditions: 5 or 10 minutes with ethanol; cells grown in the presence of EDA. As for the experimental part:
as §2

Test [12] deals with Salmonella enterica (ATCC 12023), Klebsiella pneumoniae (ATCC 13882), Citrobacter freundii (ATCC 8090), and E. coli (ATCC 35421). The conditions noted are these: ethanol 25%, N=3. The method, then: as §2

Take `NC(CO)C(=O)NO` (racemic) [DL-Serine hydroxamate, DL-serine hydroxamate]: in [1] (1 mg/ml SHX, 1 mM EDA), the “labeling with EDA and click reaction in the presence of the agent” value is recorded as “does not prevent labeling”. In test [1] (1 mg/ml, OD600 every 20 min for 90 min), the “doubling of fast-growing cells (OD600)” value was “slows doubling of fast-growing cells”.
As to `N[C@H](CNc1ccc([N+](=O)[O-])c2nonc12)C(=O)O` [NADA-Green], the “PIPER counts in mixed culture versus individual cultures” value in test [2] is listed as “counts in the mixed culture are approximately additive of the counts for each individual culture”. For the same molecule, in [3], the “detection of labeled strains by the image recognition algorithm” value is given as “All labeled strains except Pseudomonas were detected”. For the same molecule, in test [4], the “labeled cell counts above background noise, live versus heat-killed cells” value was “Only live cells labeled with NADA-Green were counted above background noise”. Moreover, in test [5], the “interference with cell growth or capture by the antibody” value is recorded as “does not interfere with cell growth or capture by the antibody”. Also, the labeling of bacteria result in test [6] was “labels both gram-positive and gram-negative bacteria”.
For the molecule `O=C(N[C@H](CO)[C@H](O)c1ccc([N+](=O)[O-])cc1)C(Cl)Cl` [chloramphenicol], in test [7], the “doubling (OD600)” value is reported as “prevented doubling in all 8 strains”. The “cell doubling by APC petrifilm counts” value in test [8] is “prevented cell doubling”. In test [9], the “PIPER cell counts versus sample without chloramphenicol” value is “slight decrease in cell counts”; the “interference with 3-step metabolic labeling and detection on PIPER” value was “did not interfere with 3-step metabolic labeling and detection on PIPER”.
Regarding `CCO` [ethanol], the “CuAAC labeling with or without ethanol treatment” value in [10] is “occurred efficiently both with or without ethanol treatment”. Besides, the “detection after ethanol incubation prior to the click reaction” value in test [11] is given as “dramatically improved detection”. Further, the “cell counts, cell mean intensity and variability across technical replicates” value in test [12] was “improved cell counts and/or cell mean intensity and reduced the variability across technical replicates”.
